Assay [1] concerns Escherichia coli. Briefly: Antibacterial activity against […] Escherichia coli clinical isolate 3 assessed as bacterial growth inhibition incubated for 20 hrs by broth microdilution method. It is filed as functional. On the technique in general: In broth dilution the organism is exposed to a series of concentrations in liquid medium.
The test system of assay [2] is Acinetobacter baumannii. As to the kind of experiment: Antimicrobial activity against colistin resistant Acinetobacter baumannii clinical isolate 2 assessed as bacterial growth inhibition incubated for 20 hrs by broth microdilution method. It is filed as functional.
In assay [3] the test system is Acinetobacter baumannii. As to the kind of experiment: Antimicrobial activity against colistin resistant Acinetobacter baumannii ATCC 19606 assessed as bacterial growth inhibition incubated for 20 hrs by broth microdilution method. It is filed as functional.
Assay [4] deals with Klebsiella pneumoniae. As to the kind of experiment: Antimicrobial activity against colistin resistant Klebsiella pneumoniae clinical isolate 2 assessed as bacterial growth inhibition incubated for 20 hrs by broth microdilution method. It is filed as functional.
In assay [5] the test system is Klebsiella pneumoniae. Briefly: Antimicrobial activity against colistin resistant Klebsiella pneumoniae clinical isolate 1 assessed as bacterial growth inhibition incubated for 20 hrs by broth microdilution method. The class given is functional.
The test system of assay [6] is Klebsiella pneumoniae. Briefly: Antimicrobial activity against colistin resistant Klebsiella pneumoniae clinical isolate 5 assessed as bacterial growth inhibition incubated for 20 hrs by broth microdilution method. The class given is functional.
Assay [7] concerns Escherichia coli. Briefly: Potency index, ratio of colistin MIC to test compound MIC for antibacterial activity against Escherichia coli harboring mcr-1. The class given is functional.
Assay [8] relates to Pseudomonas aeruginosa. As to the kind of experiment: Potency index, ratio of colistin MIC to test compound MIC for antibacterial activity against colistin resistant Pseudomonas aeruginosa clinical isolate 1. The class given is functional.
Assay [9] relates to Acinetobacter baumannii. Briefly: Antimicrobial activity against Acinetobacter baumannii ATCC 19606 assessed as bacterial growth inhibition incubated for 20 hrs by broth microdilution method. The class given is functional.
In assay [10] the test system is Pseudomonas aeruginosa. Briefly: Antimicrobial activity against Pseudomonas aeruginosa ATCC 27853 assessed as bacterial growth inhibition incubated for 20 hrs by broth microdilution method. The class given is functional.
The subject of assay [11] is Escherichia coli. Briefly: Antimicrobial activity against […] Escherichia coli harboring mcr-1 assessed as bacterial growth inhibition incubated for 20 hrs by broth microdilution method. It is filed as functional.
The test system of assay [12] is Escherichia coli. As to the kind of experiment: Antibacterial activity against Escherichia coli ATCC 25922 assessed as bacterial growth inhibition incubated for 20 hrs by broth microdilution method. The class given is functional.
Assay [13] has as its system Klebsiella pneumoniae. Briefly: Antimicrobial activity against colistin resistant Klebsiella pneumoniae clinical isolate 3 assessed as bacterial growth inhibition incubated for 20 hrs by broth microdilution method. It is filed as functional.
For assay [14], the system named is Klebsiella pneumoniae. Briefly: Antimicrobial activity against colistin resistant Klebsiella pneumoniae ATCC 13883 assessed as bacterial growth inhibition incubated for 20 hrs by broth microdilution method. The class given is functional.
Assay [15] has as its system Pseudomonas aeruginosa. Briefly: Potency index, ratio of polymyxin B MIC to test compound MIC for antibacterial activity against colistin resistant Pseudomonas aeruginosa clinical isolate 1. It is filed as functional.
The subject of assay [16] is Pseudomonas aeruginosa. Briefly: Antimicrobial activity against colistin resistant Pseudomonas aeruginosa clinical isolate 1 assessed as bacterial growth inhibition incubated for 20 hrs by broth microdilution method. It is filed as functional.
The test system of assay [17] is Pseudomonas aeruginosa. Briefly: Antimicrobial activity against Pseudomonas aeruginosa PAO1 assessed as bacterial growth inhibition incubated for 20 hrs by broth microdilution method. It is filed as functional.
Assay [18] concerns Acinetobacter baumannii. Briefly: Antimicrobial activity against colistin resistant Acinetobacter baumannii ATCC 3658/17 assessed as bacterial growth inhibition incubated for 20 hrs by broth microdilution method. The class given is functional.
In assay [19] the test system is Escherichia coli. Briefly: Antibacterial activity against […] Escherichia coli clinical isolate 2 assessed as bacterial growth inhibition incubated for 20 hrs by broth microdilution method. The class given is functional.
In assay [20] the test system is Klebsiella pneumoniae. As to the kind of experiment: Antimicrobial activity against Klebsiella pneumoniae ATCC 13883 assessed as bacterial growth inhibition incubated for 20 hrs by broth microdilution method. The class given is functional.
The subject of assay [21] is Klebsiella pneumoniae. Briefly: Antimicrobial activity against colistin resistant Klebsiella pneumoniae clinical isolate 4 assessed as bacterial growth inhibition incubated for 20 hrs by broth microdilution method. The class given is functional.
Assay [22] relates to Acinetobacter baumannii. Briefly: Antimicrobial activity against colistin resistant Acinetobacter baumannii clinical isolate 3 assessed as bacterial growth inhibition incubated for 20 hrs by broth microdilution method. It is filed as functional.
For assay [23], the system named is Pseudomonas aeruginosa. Briefly: Antimicrobial activity against colistin resistant Pseudomonas aeruginosa 7197/19 assessed as bacterial growth inhibition incubated for 20 hrs by broth microdilution method. The class given is functional.
The test system of assay [24] is Escherichia coli. As to the kind of experiment: Antibacterial activity against […] Escherichia coli clinical isolate 1 assessed as bacterial growth inhibition incubated for 20 hrs by broth microdilution method. It is filed as functional.
Assay [25] concerns Acinetobacter baumannii. As to the kind of experiment: Antimicrobial activity against colistin resistant Acinetobacter baumannii clinical isolate 1 assessed as bacterial growth inhibition incubated for 20 hrs by broth microdilution method. The class given is functional.
Assay [26] has as its system Escherichia coli. Briefly: Antibacterial activity against […] Escherichia coli ATCC 25922 assessed as bacterial growth inhibition incubated for 20 hrs by broth microdilution method. The class given is functional.
Assay [27] has as its system Klebsiella pneumoniae. Briefly: Antimicrobial activity against colistin resistant Klebsiella pneumoniae clinical isolate 6 assessed as bacterial growth inhibition incubated for 20 hrs by broth microdilution method. It is filed as functional.
Assay [28] deals with Acinetobacter baumannii. Briefly: Antimicrobial activity against colistin resistant Acinetobacter baumannii clinical isolate 4 assessed as bacterial growth inhibition incubated for 20 hrs by broth microdilution method. The class given is functional.
For another assay, the system named is Cell membrane. As to the kind of experiment: Induction of membrane destabilization in Escherichia coli MG1655 assessed as SYTOX uptake at 2 times MIC measured every 5 mins for 120 mins by microplate reader assay. It is filed as cell membranes.

In brackets after ≈: the same amount, converted by molar mass. Activity calls are given as the source filed them. Positions of bridges follow the written chain, without caps; N, C: chain ends. Non-standard residues stand in square brackets, D forms with d. Residues, ends and D or L forms follow the SMILES beside them. *: point of attachment. Benzoyl(4-Ph) = O=C(c1ccc(-c2ccccc2)cc1)*; hPhe = N[C@@H](CCc1ccccc1)C(=O)O; Octanoyl = CCCCCCCC(=O)*; Dab = NCC[C@H](N)C(=O)O

Broadly, the MIC is the smallest concentration in the dilution series that meets the test's criterion for growth inhibition. For `CCCCCCCC(=O)N[C@@H](CCN)C(=O)N[C@H](C(=O)N[C@@H](CCN)C(=O)N[C@H]1CCNC(=O)[C@H]([C@@H](C)O)NC(=O)[C@H](CCN)NC(=O)[C@H](CCN)NC(=O)[C@H](CCCCCC)NC(=O)[C@@H](Cc2ccccc2)NC(=O)[C@H](CCN)NC1=O)[C@@H](C)O`, the MIC with Escherichia coli [1] turned out to be 1 µg/mL (≈ 0.821 µM); in the assay with Acinetobacter baumannii [2], 16 µg/mL (≈ 13.1 µM); with Acinetobacter baumannii [3], 0.25 µg/mL (≈ 0.205 µM); in the assay with Klebsiella pneumoniae [4], 8 µg/mL (≈ 6.57 µM); in the assay with Klebsiella pneumoniae [5] it was 16 µg/mL (≈ 13.1 µM); in the assay on Klebsiella pneumoniae [6], 16 µg/mL (≈ 13.1 µM). The minimal inhibitory concentration (MIC) with Acinetobacter baumannii [9] was 0.125 µg/mL (≈ 0.103 µM); in the assay with Pseudomonas aeruginosa [10], 0.25 µg/mL (≈ 0.205 µM); in the assay with Escherichia coli [11], 0.5 µg/mL (≈ 0.411 µM); in the assay on Escherichia coli [12], less than 0.125 µg/mL; in the assay with Klebsiella pneumoniae [13] it was 4 µg/mL (≈ 3.29 µM); in the assay on Klebsiella pneumoniae [14] it was 8 µg/mL (≈ 6.57 µM). Also, the MIC with Pseudomonas aeruginosa [16] was 2 µg/mL (≈ 1.64 µM); in the assay on Pseudomonas aeruginosa [17] it was less than 0.125 µg/mL; in the assay with Acinetobacter baumannii [18], 0.25 µg/mL (≈ 0.205 µM); with Escherichia coli [19], 1 µg/mL (≈ 0.821 µM); with Klebsiella pneumoniae [20] it was less than 0.123 µg/mL. The results for the Ratio in the assay on Escherichia coli [7], with Pseudomonas aeruginosa [8] and in the assay with Pseudomonas aeruginosa [15] were 4, 2 and 2, respectively.
With `CCCCCCCC(=O)N[C@@H](CCN)C(=O)N[C@H](C(=O)N[C@@H](CCN)C(=O)N[C@H]1CCNC(=O)[C@H]([C@@H](C)O)NC(=O)[C@H](CCN)NC(=O)[C@H](CCN)NC(=O)[C@H](CCc2ccccc2)NC(=O)[C@@H](CC(C)C)NC(=O)[C@H](CCN)NC1=O)[C@@H](C)O` (Octanoyl-[Dab]T[Dab][Dab][Dab][dL][hPhe][Dab][Dab]T; lactam 4-C), the MIC stood at 0.5 µg/mL (≈ 0.415 µM) with Escherichia coli [1]; 4 µg/mL (≈ 3.32 µM) in the assay with Klebsiella pneumoniae [21]; 4 µg/mL (≈ 3.32 µM) with Klebsiella pneumoniae [4]; 4 µg/mL (≈ 3.32 µM) with Klebsiella pneumoniae [5]; 1 µg/mL (≈ 0.831 µM) in the assay on Acinetobacter baumannii [22]; 0.25 µg/mL (≈ 0.208 µM) with Pseudomonas aeruginosa [10]. The MIC with Escherichia coli [11] is 1 µg/mL (≈ 0.831 µM); with Escherichia coli [12] it was 0.125 µg/mL (≈ 0.104 µM); with Klebsiella pneumoniae [13], 4 µg/mL (≈ 3.32 µM); with Pseudomonas aeruginosa [23], 1 µg/mL (≈ 0.831 µM); in the assay on Pseudomonas aeruginosa [17], 0.25 µg/mL (≈ 0.208 µM); with Escherichia coli [19], 1 µg/mL (≈ 0.831 µM). For the same compound, the MIC with Escherichia coli [24] was found to be 1 µg/mL (≈ 0.831 µM).
Turning to POLYMYXIN B, the minimal inhibitory concentration (MIC) with Escherichia coli [1] is 4 µg/mL; in the assay with Acinetobacter baumannii [2], more than 16 µg/mL; with Acinetobacter baumannii [25], more than 16 µg/mL; in the assay on Klebsiella pneumoniae [21], 16 µg/mL; in the assay on Escherichia coli [26] it was 0.125 µg/mL; in the assay on Klebsiella pneumoniae [27] it was 16 µg/mL. For the same compound, the MIC in the assay on Acinetobacter baumannii [3] is 0.125 µg/mL; in the assay on Klebsiella pneumoniae [4], 8 µg/mL; with Klebsiella pneumoniae [5] it was more than 16 µg/mL; with Acinetobacter baumannii [28] it was 16 µg/mL; in the assay on Acinetobacter baumannii [22] it was 8 µg/mL; in the assay on Klebsiella pneumoniae [6], more than 16 µg/mL. Moreover, the MIC in the assay on Acinetobacter baumannii [9] came to 0.25 µg/mL; with Pseudomonas aeruginosa [10], 0.25 µg/mL; with Escherichia coli [11] it was 2 µg/mL; with Escherichia coli [12] it was 0.25 µg/mL; in the assay with Klebsiella pneumoniae [13] it was 4 µg/mL; in the assay on Pseudomonas aeruginosa [23], 8 µg/mL. The MIC in the assay on Klebsiella pneumoniae [14] was 16 µg/mL; in the assay with Pseudomonas aeruginosa [16], 4 µg/mL; in the assay with Pseudomonas aeruginosa [17], 0.25 µg/mL; in the assay with Acinetobacter baumannii [18] it was 8 µg/mL; with Escherichia coli [19], 2 µg/mL; in the assay with Escherichia coli [24] it was 2 µg/mL. Besides, the MIC in the assay on Klebsiella pneumoniae [20] was 0.5 µg/mL.
Take `CC[C@H](C)[C@@H]1NC(=O)[C@@H](CC(C)C)NC(=O)[C@H](CCN)NC(=O)[C@@H](NC(=O)[C@@H](CO)NC(=O)[C@@H](NC(=O)[C@H](CCN)NC(=O)c2ccc(-c3ccccc3)cc2)[C@@H](C)O)CCNC(=O)[C@H](CC(C)C)NC(=O)[C@H](CCN)NC(=O)[C@H](CCN)NC1=O` ({Benzoyl(4-Ph)}-[Dab]T[dS][Dab][Dab][dL]I[Dab][Dab]L; lactam 4-C): the MIC in the assay on Escherichia coli [1] stood at 2 µg/mL (≈ 1.65 µM); with Escherichia coli [26], 2 µg/mL (≈ 1.65 µM); in the assay on Klebsiella pneumoniae [27], 0.5 µg/mL (≈ 0.414 µM); in the assay with Acinetobacter baumannii [3] it was 0.5 µg/mL (≈ 0.414 µM); in the assay with Klebsiella pneumoniae [4], 1 µg/mL (≈ 0.827 µM); in the assay on Klebsiella pneumoniae [5] it was 1 µg/mL (≈ 0.827 µM). In addition, the MIC was found to be 4 µg/mL (≈ 3.31 µM) in the assay with Acinetobacter baumannii [22]; 1 µg/mL (≈ 0.827 µM) with Klebsiella pneumoniae [6]; 0.5 µg/mL (≈ 0.414 µM) with Pseudomonas aeruginosa [10]; 4 µg/mL (≈ 3.31 µM) in the assay on Escherichia coli [11]; 2 µg/mL (≈ 1.65 µM) in the assay on Klebsiella pneumoniae [13]; 1 µg/mL (≈ 0.827 µM) in the assay on Pseudomonas aeruginosa [23]. For the same compound, the MIC in the assay with Klebsiella pneumoniae [14] was 2 µg/mL (≈ 1.65 µM); with Pseudomonas aeruginosa [16], 2 µg/mL (≈ 1.65 µM); in the assay with Acinetobacter baumannii [18], 1 µg/mL (≈ 0.827 µM); with Escherichia coli [19] it was 4 µg/mL (≈ 3.31 µM); in the assay on Escherichia coli [24], 4 µg/mL (≈ 3.31 µM); in the assay with Klebsiella pneumoniae [20], 2 µg/mL (≈ 1.65 µM). For the same compound, the Ratio in the assay with Pseudomonas aeruginosa [8] and in the assay with Pseudomonas aeruginosa [15] was 2 each time.
For the compound `CCCCCCCC(=O)N[C@@H](CCN)C(=O)N[C@H](C(=O)N[C@@H](CCN)C(=O)N[C@H]1CCNC(=O)[C@H]([C@@H](C)O)NC(=O)[C@H](CCN)NC(=O)[C@H](CCN)NC(=O)C(CCCCCC)NC(=O)[C@@H](Cc2ccccc2)NC(=O)[C@@H](CCN)NC1=O)[C@H](C)O` (some centres undefined), the result in the assay with Cell membrane was Active.
